# In PubChem BioAssay AID1963870 (Molecular Pharmacology Branch, DTP, NCI, 2024):
# pIC50: −log10 of the molar value.
# Test system: 292921-168-R-J2-PDC KRAS tumor spheroid viability
# Assay: Anticancer human tumor 292921-168-R-J2-PDC patient-derived pancreatic carcinoma cell line growth inhibition [KRAS2]
# Details: spheroids with HUVEC and MSC; for pIC50: curve of first compound; for viability, T/C: stronger effect = lower value
# Summary of the method: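 Combination screen of spheroid viability in tumor-cell co-cultures with endothelial (HUVEC) and mesenchymal stem cell stroma. Each agent was tested in half-log dilutions, topping at clinical Cmax or at 10 microM without a known Cmax.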
# [1] = second compound 0.1 µM, first compound 0.01 µM
# [2] = second compound 0.1 µM, first compound 0.0316 µM
# [3] = second compound 0.316 µM, first compound 0.01 µM
# [4] = second compound 0.316 µM, first compound 0.0316 µM
# [5] = second compound 1 µM, first compound 0.01 µM
# [6] = second compound 1 µM, first compound 0.0316 µM
# [7] = second compound 3.16 µM, first compound 0.01 µM
# [8] = second compound 3.16 µM, first compound 0.0316 µM
# [9] = second compound 10 µM, first compound 0.01 µM
# [10] = second compound 10 µM, first compound 0.0316 µM
# [11] = second compound 0.1 µM, first compound 0.1 µM
# [12] = second compound 0.1 µM, first compound 0.316 µM
# [13] = second compound 0.1 µM, first compound 1 µM
# [14] = second compound 0.1 µM, first compound 3.16 µM
# [15] = second compound 0.316 µM, first compound 0.1 µM
# [16] = second compound 0.316 µM, first compound 0.316 µM
# [17] = second compound 0.316 µM, first compound 1 µM
# [18] = second compound 0.316 µM, first compound 3.16 µM
# [19] = second compound 1 µM, first compound 0.1 µM
# [20] = second compound 1 µM, first compound 0.316 µM
# [21] = second compound 1 µM, first compound 1 µM
# [22] = second compound 1 µM, first compound 3.16 µM
# [23] = second compound 3.16 µM, first compound 0.1 µM
# [24] = second compound 3.16 µM, first compound 0.316 µM
# [25] = second compound 3.16 µM, first compound 1 µM
# [26] = second compound 3.16 µM, first compound 3.16 µM
# [27] = second compound 10 µM, first compound 0.1 µM
# [28] = second compound 10 µM, first compound 0.316 µM
# [29] = second compound 10 µM, first compound 1 µM
# [30] = second compound 10 µM, first compound 3.16 µM
# 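Note: drug exposure lasted seven days after spheroids formed for three days.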
# 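Throughout, for viability, T/C: percent of DMSO vehicle control viability which is 100%.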
structure (smiles),measurement,setting,value
CC(=O)Nc1cccc(-n2c(=O)n(C3CC3)c(=O)c3c(Nc4ccc(I)cc4F)n(C)c(=O)c(C)c32)c1 + COc1cc2nc(C)nc(NC(C)c3cc(N)cc(C(F)(F)F)c3)c2cc1OC1CCOC1,pIC50,second compound 0.1 µM,9.64
same,pIC50,second compound 0.316 µM,9.78
same,pIC50,second compound 1 µM,9.92
same,pIC50,second compound 3.16 µM,9.98
same,pIC50,second compound 10 µM,> 10.00
same,"viability, T/C","second compound 0.1 µM, first compound 0.0001 µM",72.3%
same,"viability, T/C","second compound 0.1 µM, first compound 0.000316 µM",40.4%
same,"viability, T/C","second compound 0.1 µM, first compound 0.001 µM",25.4%
same,"viability, T/C","second compound 0.1 µM, first compound 0.00316 µM",16.1%
same,"viability, T/C",[1],11.3%
same,"viability, T/C",[2],8.07%
same,"viability, T/C","second compound 0.316 µM, first compound 0.0001 µM",57.4%
same,"viability, T/C","second compound 0.316 µM, first compound 0.000316 µM",40.9%
same,"viability, T/C","second compound 0.316 µM, first compound 0.001 µM",22%
same,"viability, T/C","second compound 0.316 µM, first compound 0.00316 µM",15.7%
same,"viability, T/C",[3],12%
same,"viability, T/C",[4],8.27%
same,"viability, T/C","second compound 1 µM, first compound 0.0001 µM",53.6%
same,"viability, T/C","second compound 1 µM, first compound 0.000316 µM",31.5%
same,"viability, T/C","second compound 1 µM, first compound 0.001 µM",20.9%
same,"viability, T/C","second compound 1 µM, first compound 0.00316 µM",13.8%
same,"viability, T/C",[5],11.5%
same,"viability, T/C",[6],8.01%
same,"viability, T/C","second compound 3.16 µM, first compound 0.0001 µM",51.5%
same,"viability, T/C","second compound 3.16 µM, first compound 0.000316 µM",29.2%
same,"viability, T/C","second compound 3.16 µM, first compound 0.001 µM",19.1%
same,"viability, T/C","second compound 3.16 µM, first compound 0.00316 µM",12.4%
same,"viability, T/C",[7],10.3%
same,"viability, T/C",[8],8.26%
same,"viability, T/C","second compound 10 µM, first compound 0.0001 µM",18.4%
same,"viability, T/C","second compound 10 µM, first compound 0.000316 µM",14.6%
same,"viability, T/C","second compound 10 µM, first compound 0.001 µM",15%
same,"viability, T/C","second compound 10 µM, first compound 0.00316 µM",11.9%
same,"viability, T/C",[9],8.42%
same,"viability, T/C",[10],8.34%
COC(=O)c1ccc2c(C(=Nc3ccc(N(C)C(=O)CN4CCN(C)CC4)cc3)c3ccccc3)c(O)[nH]c2c1 + CC1OCC2(CCN(c3cnc(Sc4ccnc(N)c4Cl)c(N)n3)CC2)C1N,pIC50,second compound 0.1 µM,6.66
same,pIC50,second compound 0.316 µM,6.62
same,pIC50,second compound 1 µM,> 7.50
same,pIC50,second compound 3.16 µM,6.98
same,pIC50,second compound 10 µM,6.98
same,"viability, T/C",[2],71.4%
same,"viability, T/C",[11],57.7%
same,"viability, T/C",[12],48.3%
same,"viability, T/C",[13],24.8%
same,"viability, T/C",[14],12.3%
same,"viability, T/C","second compound 0.1 µM, first compound 10 µM",0.41%
same,"viability, T/C",[4],76.8%
same,"viability, T/C",[15],63.1%
same,"viability, T/C",[16],46.1%
same,"viability, T/C",[17],26.6%
same,"viability, T/C",[18],9.27%
same,"viability, T/C","second compound 0.316 µM, first compound 10 µM",0.34%
same,"viability, T/C",[6],48%
same,"viability, T/C",[19],44.3%
same,"viability, T/C",[20],37.6%
same,"viability, T/C",[21],19.3%
same,"viability, T/C",[22],10%
same,"viability, T/C","second compound 1 µM, first compound 10 µM",0.37%
same,"viability, T/C",[8],60%
same,"viability, T/C",[23],51.8%
same,"viability, T/C",[24],34.5%
same,"viability, T/C",[25],17.9%
same,"viability, T/C",[26],9.11%
same,"viability, T/C","second compound 3.16 µM, first compound 10 µM",0.37%
same,"viability, T/C",[10],58.2%
same,"viability, T/C",[27],50.3%
same,"viability, T/C",[28],34.6%
same,"viability, T/C",[29],17.4%
same,"viability, T/C",[30],1.12%
same,"viability, T/C","second compound 10 µM, first compound 10 µM",0.57%
CC(=O)OC12COC1CC(O)C1(C)C(=O)C(O)C3=C(C)C(OC(=O)C(O)C(NC(=O)OC(C)(C)C)c4ccccc4)CC(O)(C(OC(=O)c4ccccc4)C21)C3(C)C (stereo not given) + CC1OCC2(CCN(c3cnc(Sc4ccnc(N)c4Cl)c(N)n3)CC2)C1N,pIC50,second compound 0.1 µM,> 8.00
same,pIC50,second compound 0.316 µM,> 8.00
same,pIC50,second compound 1 µM,> 8.00
same,pIC50,second compound 3.16 µM,> 8.00
same,pIC50,second compound 10 µM,> 8.00
same,"viability, T/C",[1],14.3%
same,"viability, T/C",[2],14.6%
same,"viability, T/C",[11],12.2%
same,"viability, T/C",[12],12.4%
same,"viability, T/C",[13],13.6%
same,"viability, T/C",[14],16.8%
same,"viability, T/C",[3],14.6%
same,"viability, T/C",[4],11.3%
same,"viability, T/C",[15],10.6%
same,"viability, T/C",[16],10.7%
same,"viability, T/C",[17],12.2%
same,"viability, T/C",[18],13.9%
same,"viability, T/C",[5],16.9%
same,"viability, T/C",[6],17.1%
same,"viability, T/C",[19],13.4%
same,"viability, T/C",[20],13.9%
same,"viability, T/C",[21],14.2%
same,"viability, T/C",[22],22.1%
same,"viability, T/C",[7],13.1%
same,"viability, T/C",[8],11.6%
same,"viability, T/C",[23],10.9%
same,"viability, T/C",[24],10.4%
same,"viability, T/C",[25],13.2%
same,"viability, T/C",[26],13.8%
same,"viability, T/C",[9],13.7%
same,"viability, T/C",[10],11.8%
same,"viability, T/C",[27],11.8%
same,"viability, T/C",[28],11%
same,"viability, T/C",[29],13.4%
same,"viability, T/C",[30],13.7%
